Like-named read-outs stand apart in the source and are kept apart here.

These results are taken from patent US7427485B2, “Method for classification of anti-psychotic drugs” (The Rockefeller University, priority 2001, dated 2008).

One experiment has as its system DARPP-32. Conditions: chronic administration in rats; cited from earlier work.
The test system of the next experiment is Thr202- and Tyr204- ERK1. The experiment in a line: In vivo phosphorylation of ERK1 in mouse striatum (immunoblot, phosphorylation state-specific antibodies). The note with it: for Thr202- and Tyr204- ERK1 phosphorylation level (mean): eticlopride 0.5, haloperidol 0.2, clozapine 5 mg/kg i.p., time 0 control = 100; for levels of phospho-ERK1 (in words): haloperidol 0.2 mg/kg, eticlopride 0.5 mg/kg.

The subject of another experiment is Thr34-DARPP-32. The experiment in a line: In vivo phosphorylation of DARPP-32 at Thr34 in mouse striatum (immunoblot, phosphorylation state-specific antibodies). Conditions: for Thr34-DARPP-32 phosphorylation level (mean): eticlopride 0.5, haloperidol 0.2, clozapine 5 mg/kg i.p., time 0 control = 100. The arrangement: species or system mice. On the procedure:
(§1) Male C57/BL6 mice (groups of six) were administered intraperitoneal injections of one of three anti-psychotic compounds, haloperidol (a typical anti-psychotic), clozapine (an atypical anti-psychotic), or eticlopride (a selective dopamine D2 receptor antagonist). All animals were sacrificed by decapitation at 15, 30, or 60 minutes post-injection. After decapitation, the heads were immediately immersed in liquid nitrogen for 6 seconds to inactivate all protein activity. The brains were then dissected on an ice-cold surface and the striata removed and sonicated in 750 μl of 1% SDS, and then boiled for 10 minutes. Levels of phosphorylated DARPP-32, CREB, and ERK1 and ERK2 were then determined.
(§2) In order to determine levels of phosphoproteins in brain tissue, aliquots of the brain homogenate were loaded onto 10% polyacrylamide gels and the proteins separated by SDS/PAGE analysis, and then transferred to poly(vinylidene difluoride) membranes as described by Towbin and colleagues (Towbin, H. et al. 1979. Proc. Natl. Acad. Sci. USA 76:4350-4354). The effect of the drugs on the phosphorylation of DARPP-32 at two sites (Thr34 and Thr75), ERK1 at two sites (Thr202 and Tyr204), ERK2 at two sites (Thr185 and Tyr187), and CREB at one site (Ser133) was assessed using phosphorylation state-specific antibodies according to standard methods. Anti-phospho-ERK1 and anti-phospho-ERK2 antibodies were obtained from Cell Signaling Technology (Beverly, Mass.). Anti-phospho-CREB antibody was obtained from Upstate Biotechnology (Lake Placid, N.Y.). Anti-phospho-DARPP32 antibodies were used that had been produced according to the methods disclosed in U.S. patent application Ser. No. 09/419,379, by Bibb et al., entitled “Methods of Identifying Agents That Regulate Phosphorylation/Dephosphorylation in Dopamine Signaling,” filed Oct. 15, 1999, and Ser. No. 09/687,959, by Bibb et al., entitled “Methods of Identifying Agents That Regulate Phosphorylation/Dephosphorylation in Dopamine Signaling,” filed Oct. 13, 2000, (each of which is incorporated herein by reference in its entirety). These methods were used to produce phosphorylation state-specific antibodies having specificity for Thr34-phosphorylated and Thr75-phosphorylated DARPP-32.

Another experiment deals with Thr75-DARPP-32. Description: In vivo phosphorylation of DARPP-32 at Thr75 in mouse striatum (immunoblot, phosphorylation state-specific antibodies). The note with it: for Thr75-DARPP-32 phosphorylation level (mean): eticlopride 0.5, haloperidol 0.2, clozapine 5 mg/kg i.p., time 0 control = 100.
In the next experiment the test system is Thr185- and Tyr187- ERK2. Description: In vivo phosphorylation of ERK2 in mouse striatum (immunoblot, phosphorylation state-specific antibodies). Set-up: species or system mice. The note with it: for Thr185- and Tyr187- ERK2 phosphorylation level (mean): eticlopride 0.5, haloperidol 0.2, clozapine 5 mg/kg i.p., time 0 control = 100; for levels of phospho-ERK2 (in words): haloperidol 0.2 mg/kg, eticlopride 0.5 mg/kg. How it is done:
as §1, §2

A further experiment deals with Ser133-CREB. The experiment in a line: In vivo phosphorylation of CREB in mouse striatum (immunoblot, phosphorylation state-specific antibodies). Set-up: species or system mice. Conditions: for Ser133-CREB phosphorylation level (mean): eticlopride 0.5, haloperidol 0.2, clozapine 5 mg/kg i.p., time 0 control = 100; for levels of phospho-CREB (in words): haloperidol 0.2 mg/kg, eticlopride 0.5 mg/kg. On the procedure: as §1, §2

The next experiment relates to c-fos. Conditions: dorsal striatum; cited from earlier work.
For a further experiment, the system named is DOI-induced behaviors. The note with it: rats; 30 min pretreatment i.p.; fixed dose of DOI 3.0 mg/kg; cited from earlier work.

As for `N[C@@H]1C[C@H]1c1ccccc1` (racemic) [tranylcypromine], in the experiment with DARPP-32, the “frontal cortex levels of DARPP-32 immunoreactivity” value (“frontal cortex levels” below) is on record as “significant increases”.

Consider `CN1CCN(C2=Nc3cc(Cl)ccc3Nc3ccccc32)CC1` [Clozapine, clozapine], for which the “Thr202- and Tyr204- ERK1 phosphorylation level (mean)” value in the experiment on Thr202- and Tyr204- ERK1 (15 min post-injection) came to 90; with Thr202- and Tyr204- ERK1 (30 min post-injection), 75; in the experiment on Thr202- and Tyr204- ERK1 (60 min post-injection), 33. In addition, the results for the “Thr34-DARPP-32 phosphorylation level (mean)” value in the experiment on Thr34-DARPP-32 (15 min post-injection), in the experiment on Thr34-DARPP-32 (30 min post-injection) and in the experiment on Thr34-DARPP-32 (60 min post-injection) were 188, 209 and 222, respectively. Besides, the results for the “Thr75-DARPP-32 phosphorylation level (mean)” value in the experiment on Thr75-DARPP-32 (15 min post-injection), in the experiment with Thr75-DARPP-32 (30 min post-injection) and with Thr75-DARPP-32 (60 min post-injection) were 179, 216 and 203, respectively. Moreover, the “Thr185- and Tyr187- ERK2 phosphorylation level (mean)” value in the experiment with Thr185- and Tyr187- ERK2 (15 min post-injection) worked out at 62; in the experiment with Thr185- and Tyr187- ERK2 (30 min post-injection) it was 41; in the experiment on Thr185- and Tyr187- ERK2 (60 min post-injection), 15. Also, the entries for the “Ser133-CREB phosphorylation level (mean)” value in the experiment with Ser133-CREB (15 min post-injection), in the experiment with Ser133-CREB (30 min post-injection) and with Ser133-CREB (60 min post-injection) were 51, 62 and 57, respectively.

Take `CCc1cc(Cl)c(OC)c(C(=O)NC[C@@H]2CCCN2CC)c1O` [Eticlopride, eticlopride]: the “Thr202- and Tyr204- ERK1 phosphorylation level (mean)” value with Thr202- and Tyr204- ERK1 (15 min post-injection) came out at 223; with Thr202- and Tyr204- ERK1 (30 min post-injection) it was 207; in the experiment with Thr202- and Tyr204- ERK1 (60 min post-injection) it was 170. Moreover, in the experiment on Thr202- and Tyr204- ERK1, the “levels of phospho-ERK1 (in words)” value is reported as “significant increases”. The “Thr34-DARPP-32 phosphorylation level (mean)” value was found to be 192 in the experiment with Thr34-DARPP-32 (15 min post-injection), 226 with Thr34-DARPP-32 (30 min post-injection) and 190 with Thr34-DARPP-32 (60 min post-injection). Further, the figures for the “Thr75-DARPP-32 phosphorylation level (mean)” value in the experiment with Thr75-DARPP-32 (15 min post-injection), in the experiment with Thr75-DARPP-32 (30 min post-injection) and with Thr75-DARPP-32 (60 min post-injection) were 80, 70 and 80, respectively. Also, in the experiment with Thr75-DARPP-32 (at 30 minutes), the “DARPP-32 phosphorylation at Thr75 (in words)” value was “decreased”. Further, in the experiment with Thr185- and Tyr187- ERK2, the “time after administration at which phospho-ERK2 levels returned to control levels” value worked out at 30 min. For the same molecule, the “Thr185- and Tyr187- ERK2 phosphorylation level (mean)” value in the experiment with Thr185- and Tyr187- ERK2 (15 min post-injection) came to 132; in the experiment on Thr185- and Tyr187- ERK2 (30 min post-injection), 97; in the experiment with Thr185- and Tyr187- ERK2 (60 min post-injection), 96. Besides, the “levels of phospho-ERK2 (in words)” value in the experiment with Thr185- and Tyr187- ERK2 is “significant increases”. In the experiment on Ser133-CREB, the “time after administration at which phospho-CREB levels returned to control levels” value was 60 min. Moreover, the “Ser133-CREB phosphorylation level (mean)” value with Ser133-CREB (15 min post-injection) amounted to 167; in the experiment on Ser133-CREB (30 min post-injection), 146; in the experiment on Ser133-CREB (60 min post-injection), 123. The “levels of phospho-CREB (in words)” value in the experiment with Ser133-CREB is given as “significant increases”.

Regarding `O=C(CCCN1CCC(O)(c2ccc(Cl)cc2)CC1)c1ccc(F)cc1` [Haloperidol, haloperidol], the “Thr202- and Tyr204- ERK1 phosphorylation level (mean)” value with Thr202- and Tyr204- ERK1 (15 min post-injection) is given as 231; in the experiment with Thr202- and Tyr204- ERK1 (30 min post-injection), 187; in the experiment with Thr202- and Tyr204- ERK1 (60 min post-injection) it was 169. The “levels of phospho-ERK1 (in words)” value in the experiment on Thr202- and Tyr204- ERK1 is given as “significant increases”. For the same molecule, the “Thr34-DARPP-32 phosphorylation level (mean)” value in the experiment with Thr34-DARPP-32 (15 min post-injection) amounted to 195; with Thr34-DARPP-32 (30 min post-injection) it was 196; with Thr34-DARPP-32 (60 min post-injection), 155. The “Thr34 phosphorylation (in words)” value with Thr34-DARPP-32 (at 60 minutes) is “no statistical difference from controls”; in the experiment on Thr34-DARPP-32 (for up to 30 minutes) it was “increased”. The “DARPP-32 phosphorylation at Thr75 (in words)” value with Thr75-DARPP-32 was “without effect”. Further, the “Thr75-DARPP-32 phosphorylation level (mean)” value with Thr75-DARPP-32 (15 min post-injection) was 133; with Thr75-DARPP-32 (30 min post-injection) it was 144; in the experiment with Thr75-DARPP-32 (60 min post-injection) it was 138. In addition, in the experiment on c-fos, the “inducing c-fos expression, as compared to clozapine” value is recorded as “much more effective”. In the experiment with Thr185- and Tyr187- ERK2, the “time after administration at which phospho-ERK2 levels returned to control levels” value is 30 min. In addition, the “Thr185- and Tyr187- ERK2 phosphorylation level (mean)” value in the experiment on Thr185- and Tyr187- ERK2 (15 min post-injection) stood at 151; in the experiment with Thr185- and Tyr187- ERK2 (30 min post-injection), 114; in the experiment with Thr185- and Tyr187- ERK2 (60 min post-injection), 107. Moreover, the “levels of phospho-ERK2 (in words)” value in the experiment with Thr185- and Tyr187- ERK2 is on record as “significant increases”. In addition, in the experiment on DOI-induced behaviors, the “effect on the three behavioral effects of DOI (head-and-body shakes, forepaw tapping, skin-jerks)” value (“effect on the three behavioral effects” for short) is reported as “antagonize”. The “time after administration at which phospho-CREB levels returned to control levels” value in the experiment on Ser133-CREB came to 30 min. Besides, the entries for the “Ser133-CREB phosphorylation level (mean)” value in the experiment with Ser133-CREB (15 min post-injection), with Ser133-CREB (30 min post-injection) and in the experiment with Ser133-CREB (60 min post-injection) were 148, 131 and 114, respectively. In addition, the “levels of phospho-CREB (in words)” value in the experiment on Ser133-CREB was “significant increases”. The “frontal cortex levels” value in the experiment on DARPP-32 is reported as “without effects”.

For the molecule `COc1cccc([C@H](O)C2CCN(CCc3ccc(F)cc3)CC2)c1OC` [M100907], in the experiment on DOI-induced behaviors, the “effect on the three behavioral effects” value is reported as “antagonize”.

As for `CCNC(=O)N1CCN(CCCC(c2ccc(F)cc2)c2ccc(F)cc2)CC1` [amperozide], in the experiment with DOI-induced behaviors, the “effect on the three behavioral effects” value is recorded as “antagonize”.

Turning to `COc1cc(C(C)=O)ccc1OCCCN1CCC(c2noc3cc(F)ccc23)CC1` [iloperidone], the “effect on the three behavioral effects” value in the experiment on DOI-induced behaviors is “antagonize”.

For `CN(C)CCCN1c2ccccc2CCc2ccccc21` [imipramine], in the experiment with DARPP-32, the “frontal cortex levels” value is listed as “significant increases”.

As for `CN1CC[C@]23c4c5ccc(O)c4O[C@H]2[C@@H](O)C=C[C@H]3[C@H]1C5` [morphine], the “frontal cortex levels” value in the experiment with DARPP-32 is recorded as “without effects”.

In the case of `CCN1CCC[C@H]1CNC(=O)c1c(OC)ccc(Br)c1OC` [remoxipride], the “effect on the three behavioral effects” value with DOI-induced behaviors is on record as “antagonize”.

For the molecule `Cc1nc2n(c(=O)c1CCN1CCC(c3noc4cc(F)ccc34)CC1)CCCC2` [risperidone], the “effect on the three behavioral effects” value in the experiment with DOI-induced behaviors was “antagonize”.

For `Cc1nc2sccn2c(=O)c1CCN1CCC(=C(c2ccc(F)cc2)c2ccc(F)cc2)CC1` [ritanserin], in the experiment with DOI-induced behaviors, the “effect on the three behavioral effects” value is recorded as “antagonize”.

On to N alpha MeArg-Lys-Pro-Trp-Tle-Leu [NT1], for which, in the experiment with DOI-induced behaviors, the “effect on the three behavioral effects” value is reported as “antagonize”.
